Earlier results as cited in US20150147356A1, “ANTIPYRETICS TO ENHANCE TOLERABILITY OF VESICLE-BASED VACCINES” (priority 2011, published 2015).
Values joined by “and” are separate entries in the source; they are usually repeats but may differ in a detail not shown here. Equal values may be shown once.

What was measured:
[1] = in vivo
[2] = in vivo; remark: listed apart in the source

| Structure (SMILES) | Therapeutic blood level | duration of action [1] | half-life [2] |
| --- | --- | --- | --- |
| CC(C)Cc1ccc(C(C)C(=O)O)cc1 (stereo not shown) [Ibuprofen, ibuprofen] | 10-50 μg/ml and 49-243 μM | about 4 hours | – |
| CC(=O)Nc1ccc(O)cc1 [paracetamol, paracetamol (acetaminophen)] | 10-30 μg/ml and 66-199 μM | – | about 3 hours |
